Assay results taken from patent publication EP4707280A1, “1,4-CINEOLE DERIVATIVE AND INTERMEDIATE THEREOF, HERBICIDE CONTAINING SAID DERIVATIVE AS ACTIVE INGREDIENT, METHOD FOR USING HERBICIDE, AND METHOD FOR PREPARING AGROCHEMICAL COMPOSITION” (HOKKO CHEMICAL INDUSTRY CO., LTD., priority 2023, dated 2024).

What was measured:
Format in all cases: in vivo
[1] = tested on: Echinochloa crus-galli var. formosensis; test: Test Example 1: herbicidal effect test by soil application in paddy rice; settings: Echinochloa crus-galli, soil, 336 h; 120 g active ingredient per 10 ares; applied immediately after sowing, flooded pots; 14 days after application; read-out: weed inhibition rate
Method in brief: (§1)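 Paddy soil in Wagner pots (1/10,000 acre), fertilized and puddled; 30 seeds per species sown at 0–1 cm, flooded to ~3 cm, greenhouse. Water-diluted emulsifiable concentrate dropped onto flooded pots right after sowing at 120 g active ingredient per 10 ares.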

Scirpus juncoides [2] = test: as above; settings: Schoenoplectiella juncoides, soil, 336 h; 120 g active ingredient per 10 ares; applied immediately after sowing, flooded pots; 14 days after application; read-out: weed inhibition rate
Method in brief: as §1

[3] = tested on: Echinochloa crus-galli var. formosensis; test: Test Example 2: herbicidal effect test by application during growth period of paddy rice; settings: Echinochloa crus-galli; 120 g per 10 ares; applied seven days after sowing, flooded pots; 14 days after application; read-out: weed inhibition rate
Method in brief: (§2)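 Weeds sown into puddled, flooded paddy soil received a post-emergence water application of emulsifiable concentrate at 120 g active ingredient per 10 ares, seven days after sowing. Herbicidal effect was rated 14 days later as inhibition (%).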

Scirpus juncoides [4] = test: as above; settings: Schoenoplectiella juncoides; 120 g per 10 ares; applied seven days after sowing, flooded pots; 14 days after application; read-out: weed inhibition rate
Method in brief: as §2

Digitaria ciliaris [5] = test: Test Example 3: herbicidal effect test by soil application in upland field; settings: Digitaria ciliaris, 120 g per 10 ares, sprayed one day after sowing, 14 days after application, read-out: weed inhibition rate
Method in brief: (§3)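 Pre-emergence test: seeds mixed into top 1 cm of alluvial loam upland soil in pots; emulsifiable concentrate diluted in water sprayed on soil one day after sowing at 100 L/10 a, 120 g a.i./10 a. Weed inhibition rate (%) scored at 14 days, in duplicate.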

Echinochloa crus-galli [6] = test: as above; settings: Echinochloa crus-galli, 120 g per 10 ares, sprayed one day after sowing, 14 days after application, read-out: weed inhibition rate
Method in brief: as §3

Digitaria ciliaris [7] = test: Test Example 4: herbicidal effect test by stem and leaf treatment in upland field; settings: Digitaria ciliaris; 120 g per 10 ares; sprayed seven days after sowing, upland soil; 14 days after application; read-out: weed inhibition rate
Echinochloa crus-galli [8] = test: as above; settings: Echinochloa crus-galli; 120 g per 10 ares; sprayed seven days after sowing, upland soil; 14 days after application; read-out: weed inhibition rate
[9] = tested on: Echinochloa crus-galli var. formosensis; test: Test Example 5: herbicidal effect test by soil application in paddy rice (low dose); settings: Echinochloa crus-galli, soil, 336 h; 7.5 g per 10 ares; applied immediately after sowing, flooded pots; 14 days after application; read-out: weed inhibition rate
Method in brief: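 Pots of puddled, fertilized paddy soil receive 30 seeds per species at 0–1 cm depth and are flooded to about 3 cm. The diluted emulsifiable concentrate is then dropped onto the water, delivering 7.5 g active ingredient per 10 ares. Greenhouse grown; herbicidal effect scored 14 days later, two replicates.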

[10] = tested on: Echinochloa crus-galli var. formosensis; test: Test Example 6: herbicidal effect test by application during growth period of paddy rice (low dose); settings: Echinochloa crus-galli; 7.5 g per 10 ares; applied seven days after sowing, flooded pots; 14 days after application; read-out: weed inhibition rate
Method in brief: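 Paddy-soil pots, flooded ~3 cm after sowing weed seeds at 0-1 cm depth, greenhouse-grown. Seven days after sowing, diluted emulsifiable concentrate applied by dropper at 7.5 g active ingredient per 10 ares. Weed inhibition rate (%) scored 14 days after application, in duplicate.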

Digitaria ciliaris [11] = test: Test Example 7: herbicidal effect test by soil application in upland field (low dose); settings: Digitaria ciliaris, 7.5 g per 10 ares, sprayed one day after sowing, 14 days after application, read-out: weed inhibition rate
Method in brief: (§4)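 Low-dose soil treatment at 7.5 g a.i. per 10 a, applied as a diluted emulsifiable concentrate sprayed onto the soil surface one day after sowing in upland alluvial loam. Duplicate pots; percent weed inhibition is read 14 days after application.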

Echinochloa crus-galli [12] = test: as above; settings: Echinochloa crus-galli, 7.5 g per 10 ares, sprayed one day after sowing, 14 days after application, read-out: weed inhibition rate
Method in brief: as §4

Digitaria ciliaris [13] = test: Test Example 8: herbicidal effect test by stem and leaf treatment in upland field (low dose); settings: Digitaria ciliaris; 7.5 g per 10 ares; sprayed seven days after sowing, upland soil; 14 days after application; read-out: weed inhibition rate
Echinochloa crus-galli [14] = test: as above; settings: Echinochloa crus-galli; 7.5 g per 10 ares; sprayed seven days after sowing, upland soil; 14 days after application; read-out: weed inhibition rate

CC(C)[C@]12C[C@@H](OCc3ccccc3I)[C@](C)(C[C@@H]1I)O2 [1-762, (1R,2S,4S,5R)-2-iodo-5-[(2-iodophenyl)methoxy]-1-isopropyl-4-methyl-7-oxabicyclo[2.2.1]heptane]
≥ 80%: pest or weed control at 1200 g/ha [1] | pest or weed control at 1200 g/ha (Scirpus juncoides [2]) | inhibition at 1200 g/ha [3] | inhibition at 1200 g/ha (Scirpus juncoides [4]) | inhibition at 1200 g/ha (Digitaria ciliaris [5]) | inhibition at 1200 g/ha (Echinochloa crus-galli [6]) | inhibition at 1200 g/ha (Digitaria ciliaris [7]) | inhibition at 1200 g/ha (Echinochloa crus-galli [8]) | inhibition at 75 g/ha [9] | inhibition at 75 g/ha [10] | inhibition at 75 g/ha (Digitaria ciliaris [11]) | inhibition at 75 g/ha (Echinochloa crus-galli [12]) | inhibition at 75 g/ha (Digitaria ciliaris [13]) | inhibition at 75 g/ha (Echinochloa crus-galli [14])

CC(C)[C@]12CC(OCc3ccccc3)[C@](C)(C[C@@H]1Cl)O2 (mixture of isomers) [1-8, (1R,2S,4S,SR)-5-benzyloxy-2-chloro-1-isopropyl-4-methyl-7-oxabicyclo[2.2.1]heptane]
≥ 80%: pest or weed control at 1200 g/ha [1] | pest or weed control at 1200 g/ha (Scirpus juncoides [2]) | inhibition at 1200 g/ha [3] | inhibition at 1200 g/ha (Scirpus juncoides [4]) | inhibition at 1200 g/ha (Digitaria ciliaris [5]) | inhibition at 1200 g/ha (Echinochloa crus-galli [6]) | inhibition at 1200 g/ha (Digitaria ciliaris [7]) | inhibition at 1200 g/ha (Echinochloa crus-galli [8]) | inhibition at 75 g/ha [9] | inhibition at 75 g/ha [10] | inhibition at 75 g/ha (Digitaria ciliaris [11]) | inhibition at 75 g/ha (Echinochloa crus-galli [12]) | inhibition at 75 g/ha (Digitaria ciliaris [13]) | inhibition at 75 g/ha (Echinochloa crus-galli [14])

CC#CCO[C@@H]1C[C@]2(C(C)C)O[C@@]1(C)C[C@@H]2I [1-734, (1R,2S,4S,5R)-5-but-2-ynoxy-2-iodo-1-isopropyl-4-methyl-7-oxabicyclo[2.2.1]heptane]
≥ 80%: pest or weed control at 1200 g/ha [1] | pest or weed control at 1200 g/ha (Scirpus juncoides [2]) | inhibition at 1200 g/ha [3] | inhibition at 1200 g/ha (Scirpus juncoides [4]) | inhibition at 1200 g/ha (Digitaria ciliaris [5]) | inhibition at 1200 g/ha (Echinochloa crus-galli [6]) | inhibition at 1200 g/ha (Digitaria ciliaris [7]) | inhibition at 1200 g/ha (Echinochloa crus-galli [8]) | inhibition at 75 g/ha [9] | inhibition at 75 g/ha [10] | inhibition at 75 g/ha (Digitaria ciliaris [11]) | inhibition at 75 g/ha (Echinochloa crus-galli [12]) | inhibition at 75 g/ha (Digitaria ciliaris [13]) | inhibition at 75 g/ha (Echinochloa crus-galli [14])

CC(C)C12CC(OCc3c(F)cccc3Br)C(C)(CC1Cl)O2 (stereo not shown) [1-1611, 2-[(2-bromo-6-fluorophenyl)methoxy]-5-chloro-1-methyl-4-isopropyl-7-oxabicyclo[2.2.1]heptane]
≥ 80%: pest or weed control at 1200 g/ha [1] | pest or weed control at 1200 g/ha (Scirpus juncoides [2]) | inhibition at 1200 g/ha [3] | inhibition at 1200 g/ha (Scirpus juncoides [4]) | inhibition at 1200 g/ha (Digitaria ciliaris [5]) | inhibition at 1200 g/ha (Echinochloa crus-galli [6]) | inhibition at 1200 g/ha (Digitaria ciliaris [7]) | inhibition at 1200 g/ha (Echinochloa crus-galli [8]) | inhibition at 75 g/ha [9] | inhibition at 75 g/ha [10] | inhibition at 75 g/ha (Digitaria ciliaris [11]) | inhibition at 75 g/ha (Echinochloa crus-galli [12]) | inhibition at 75 g/ha (Digitaria ciliaris [13]) | inhibition at 75 g/ha (Echinochloa crus-galli [14])

CC(C)C12CC(OCc3cccs3)C(C)(CC1Br)O2 (stereo not shown) [1-1389, 5-bromo-1-methyl-4-isopropyl-2-(thiophen-2-ylmethoxy)-7-oxabicyclo[2.2.1]heptane]
≥ 80%: pest or weed control at 1200 g/ha [1] | pest or weed control at 1200 g/ha (Scirpus juncoides [2]) | inhibition at 1200 g/ha [3] | inhibition at 1200 g/ha (Scirpus juncoides [4]) | inhibition at 1200 g/ha (Digitaria ciliaris [5]) | inhibition at 1200 g/ha (Echinochloa crus-galli [6]) | inhibition at 1200 g/ha (Digitaria ciliaris [7]) | inhibition at 1200 g/ha (Echinochloa crus-galli [8]) | inhibition at 75 g/ha [9] | inhibition at 75 g/ha [10] | inhibition at 75 g/ha (Digitaria ciliaris [11]) | inhibition at 75 g/ha (Echinochloa crus-galli [12]) | inhibition at 75 g/ha (Digitaria ciliaris [13]) | inhibition at 75 g/ha (Echinochloa crus-galli [14])
